Assay [1] addresses AncCDT-1. The assay can be described thus: isothermal titration calorimetry. In kind it is binding, synthetic construct. As to conditions: 20 mM Na2HPO4, 150 mM NaCl, pH 7.4, 25 °C; on-column refolded protein.
The target in assay [2] is T1, Pu1068 (Candidatus Pelagibacter communis, UniProt Q4FLR5).
T1 sequence (Q4FLR5 19-255): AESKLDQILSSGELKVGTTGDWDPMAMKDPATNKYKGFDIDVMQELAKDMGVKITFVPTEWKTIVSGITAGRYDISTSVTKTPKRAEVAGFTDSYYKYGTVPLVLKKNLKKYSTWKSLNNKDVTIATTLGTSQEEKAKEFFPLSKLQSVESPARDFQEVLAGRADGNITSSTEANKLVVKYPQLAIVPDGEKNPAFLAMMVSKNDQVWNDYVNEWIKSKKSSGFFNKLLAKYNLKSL
In words: intrinsic tryptophan fluorescence titration. In kind it is binding.

The target of assay [3] is Ws0279 (Wolinella succinogenes, UniProt Q7MAG0). In words: biochemical. As to conditions: read-out: ΔTM.

The structures appear in SMILES notation.

Ws0279, sequence (Q7MAG0 24-258): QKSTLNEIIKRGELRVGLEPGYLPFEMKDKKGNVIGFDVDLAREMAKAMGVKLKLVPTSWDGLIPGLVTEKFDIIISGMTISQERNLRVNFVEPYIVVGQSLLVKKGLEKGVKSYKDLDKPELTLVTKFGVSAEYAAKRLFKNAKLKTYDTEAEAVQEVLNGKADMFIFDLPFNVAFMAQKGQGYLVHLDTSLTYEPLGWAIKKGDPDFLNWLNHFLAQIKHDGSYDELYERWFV

`N=C(N)NCCC[C@H](N)C(=O)O` [L-arginine]: in assay [1], the Kd amounted to 320 nM.

`NCCC[C@H](N)C(=O)O` [L-ornithine] yielded a Kd in assay [1] of 1200 nM.

In assay [1], `N[C@@H](Cc1cnc[nH]1)C(=O)O` [L-histidine] displayed a Kd of 2300 nM.

Regarding `C[N+]1(CCCS(=O)(=O)[O-])CCCCC1` [NDSB-221, 3-(1-methylpiperidinium-1-yl)propane-1-sulfonate], the Kd in assay [2] is 530 µM.

For `NCCCC[C@H](N)C(=O)O` [L-lysine], the Kd in assay [1] was determined as 6700 nM. Moreover, the ΔTm at 10000 µM in assay [3] is 7.2 °C.

The Kd is the concentration at which binding is half-saturated. A low value points to tighter binding. As usually defined, the ΔTm is the shift of the melting midpoint relative to a reference.

Values taken from doi:10.1101/157495v1 (biorxiv, 2017).
